From patent US10688093B2, “Methods, compositions, and uses of novel Fyn kinase inhibitors” (priority 2015, dated 2020) come the findings set out here.

Structures are written as SMILES.

One test deals with full-length recombinant human FYN A (Homo sapiens (Human), UniProt P06241). Description: ADP-Glo Kinase Assay of FYN kinase inhibition. Type of test: biochemical. The conditions noted are these: primary screen, initial compounds. The essentials: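 GST-tagged full-length FYN A (baculovirus, Sf9) at 3 pg preincubated 30 min RT with compound (10-point 3-fold series from 10 μM) in Tris pH 7.5/MgCl2 buffer. 12-mer tyrosine peptide plus 12.5 pmol ATP added, 90 min RT; ADP measured by ADP-Glo luminescence, IC50 from dose-response.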
full-length recombinant human FYN A, sequence (P06241 whole entry): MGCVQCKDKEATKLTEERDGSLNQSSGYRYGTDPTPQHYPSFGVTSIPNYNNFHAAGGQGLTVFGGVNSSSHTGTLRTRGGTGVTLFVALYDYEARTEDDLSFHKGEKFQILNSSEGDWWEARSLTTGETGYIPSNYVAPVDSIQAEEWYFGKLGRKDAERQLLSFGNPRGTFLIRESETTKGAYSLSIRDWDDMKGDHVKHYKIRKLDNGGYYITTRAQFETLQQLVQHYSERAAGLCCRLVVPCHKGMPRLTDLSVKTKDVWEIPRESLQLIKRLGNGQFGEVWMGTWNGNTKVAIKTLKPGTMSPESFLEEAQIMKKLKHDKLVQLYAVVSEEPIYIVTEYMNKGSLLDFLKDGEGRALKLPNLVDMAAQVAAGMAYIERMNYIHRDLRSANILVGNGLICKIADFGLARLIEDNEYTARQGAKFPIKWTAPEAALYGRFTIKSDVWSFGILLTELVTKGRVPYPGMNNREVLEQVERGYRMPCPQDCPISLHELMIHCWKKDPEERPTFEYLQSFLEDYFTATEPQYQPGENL
Background: In ADP-Glo the light output rises with the ADP produced.
What is called IC50 is the point on the concentration scale where inhibition reaches its midpoint. Consider `COc1cc(-c2cc(-c3cccc(N(C)C)c3)cnc2N)cc(OC)c1OC` [382_0087_0135, 5-[3-(dimethyl-amino)phenyl]-3-(3,4,5-trimethoxyphenyl) pyridin-2-amine], for which the IC50 is 595 nM. The same measure, in the same setting: under `COc1ccc(-c2cnc3cnc(-c4ccc(N5CCN(C)CC5)cc4)cn23)cc1` [Compound 223, 3-(4-methoxyphenyl)-6-[4-(4-methyl-piperazin-1-yl)phenyl] imidazo[1,2-a]pyrazine] stands 5250 nM. On the same count and under the same terms, under `OCCCNc1ccc2ncc(-c3ccc4c(c3)OCO4)n2n1` [229_0248_0068, 3-[[3-(1,3-benzodioxol-5-yl)imidazo[1,2-b]pyridazin-6-yl]amino] propan-1-ol] stands 929 nM; under `Cn1cc(-c2ccc3ncc(-c4cccs4)n3n2)cn1` [Compound 388, 6-(1-methylpyrazol-4-yl)-3-(2-thienyl)imidazo [1,2-b]pyridazine], 1310 nM; under `COc1ccc(CNc2ccc3ncc(-c4ccc(O)c(OC)c4)n3n2)cc1` [229_0244_0314, 2-methoxy-4-[6-[(4-methoxyphenyl)methylamino]imidazo[1,2-b]pyridazin-3-yl]phenol], 4010 nM. Still for that read-out and setting: the figure for `COc1ccc(-c2cnc3ccc(-c4ccc(F)cc4)nn23)cc1OC` [Compound 328, 3-(3,4-dimethoxy-phenyl)-6-(4-fluorophenyl) imidazo[1,2-b]pyridazine] is 1330 nM; for `CN(C)C(=O)c1ccc(-c2ccnc3[nH]nc(-c4cccc(F)c4)c23)cc1` [Compound 493, 4-[3-(3-fluorophenyl)-1H-pyrazolo[3,4-b]pyridin-4-yl]-N,N-dimethyl-benzamide] it is 3860 nM. For the molecule `CC(=O)Nc1cccc(-c2cnc3ccc(-c4cccc(C(F)(F)F)c4)nn23)c1` [Compound 322, N-[3-[6-[3-(trifluoromethyl)phenyl]imidazo [1,2-b]pyridazin-3-yl]phenyl] acetamide], the IC50 came out at 1600 nM.

For `Nc1cccc(-c2ccnc3[nH]nc(-c4cccc(F)c4)c23)c1` [Compound 535, 3-[3-(3-fluorophenyl)-1H-pyrazolo[3,4-b]pyridin-4-yl]aniline], the IC50 is 15100 nM. The same measure, in the same setting: under `CN1CCN(c2ccc(Nc3nccc4[nH]c(-c5ccc(C(=O)N(C)C)cc5)cc34)cc2)CC1` [Compound 595, N,N-dimethyl-4-[4-[4-(4-methylpiperazin-1-yl)anilino]-1H-pyrrolo[3,2-c]pyridin-2-yl]benzamide] stands 7040 nM; under `CC(=O)c1cccc(-c2cnc3c(NC=O)cc(-c4ccc(C(=O)N5CCOCC5)cc4)cn23)c1` [Compound 291, N-[3-(3-acetylphenyl)-6-[4-(morpholine-4-carbonyl)phenyl]imidazo[1,2-a]pyridin-8-yl]formamide], 2990 nM. The same measure, in the same setting: under `c1csc(-c2cn3c(-c4cccs4)cnc3cn2)c1` [388_4147_4147, 3,6-bis(2-thienyl)imidazo [1,2-a]pyrazine] stands 5030 nM; under `Fc1ccc(-c2ccc3ncc(-c4cccnc4)n3n2)cc1` [Compound 401, 6-(4-fluorophenyl)-3-(3-pyridyl)imidazo [1,2-b]pyridazine], 2780 nM. On the same count and under the same terms, the figure for `c1cc(CNc2nn3c(-c4ccncc4)cnc3s2)ccn1` [Compound 551, 5-(4-pyridyl)-N-(4-pyridylmethyl) imidazo[2,1-b] [1,3,4]thiadiazol-2-amine] is 2650 nM; for `c1csc(-c2ccc3ncc(-c4cccs4)n3n2)c1` [Compound 453, 3,6-bis(2-thienyl)imidazo [1,2-b]pyridazine] it is 4890 nM; for `CN1CCN(c2ccc(-c3cn4c(-c5ccc(Oc6ccccc6)cc5)cnc4cn3)cn2)CC1` [Compound 216, 6-[6-(4-methylpiperazin-1-yl)-3-pyridyl]-3-(4-phenoxyphenyl) imidazo[1,2-a]pyrazine] it is 2130 nM. As for `COc1cc(-c2cnc3ccc(-c4ccc(NC(C)=O)cc4)nn23)ccc1O` [Compound 272, N-[4-[3-(4-hydroxy-3-methoxy-phenyl)imidazo [1,2-b]pyridazin-6-yl]phenyl] acetamide], the IC50 is 169 nM.

As for `COc1cccc(-c2cc(NC(C)=O)c3ncc(-c4cccc(C(C)=O)c4)n3c2)c1` [Compound 545, N-[3-(3-acetylphenyl)-6-[3-methoxy-phenyl)imidazo [1,2-a]pyridin-8-yl]acetamide], the IC50 came out at 3050 nM. Still for that read-out and setting: the figure for `CNc1ccc2ncc(-c3cccc(C(=O)N(C)C)c3)n2n1` [Compound 437_0349, N,N-dimethyl-3-[6-(methylamino)imidazo[1,2-b]pyridazin-3-yl]benzamide] is 2940 nM; for `CCC(CO)Nc1ccc2ncc(-c3cccc(OC)c3)n2n1` (stereo not drawn) [229_0153_4140, 2-[[3-(3-methoxyphenyl)imidazo[1,2-b]pyridazin-6-yl]amino]butan-1-ol] it is 1550 nM; for `COc1ccc(Nc2ccn3ncc(-c4cccc(C(C)=O)c4)c3n2)cn1` [294_0042_4145, 1-[3-[5-[(6-methoxy-3-pyridyl)amino]pyrazolo[1,5-a]pyrimidin-3-yl]phenyl] ethanone] it is 1640 nM. For `COc1ccc(-c2cc(NC(C)=O)c3ncc(-c4cccc(C(C)=O)c4)n3c2)c(OC)c1` [Compound 549, N-[3-(3-acetylphenyl)-6-(2,4-dimethoxy-phenyl)imidazo [1,2-a]pyridin-8-yl]acetamide], the IC50 amounted to 2500 nM. For the molecule `COc1cc(-c2cnc3ccc(-c4ccc(OC)c(OC)c4)nn23)ccc1O` [Compound 356, 4-[6-(3,4-dimethoxyphenyl)imidazo[1,2-b]pyridazin-3-yl]-2-methoxy-phenol], the IC50 was 44.5 nM. Consider `CC(C)CNc1nn2c(-c3cccc(C(N)=O)c3)cnc2s1` [Compound 569, 3-[2-(isobutylamino)imidazo[2,1-b] [1,3,4]thiadiazol-5-yl]benzamide], for which the half-inhibitory concentration (IC50) came out at 1130 nM.

For the molecule `COc1ccc(-c2ccc3ncc(-c4ccc(OC)c(OC)c4)n3n2)cc1OC` [Compound 416, 3,6-bis(3,4-dimethoxyphenyl) imidazo[1,2-b]pyridazine], the IC50 amounted to 538 nM. Same read-out and setting: the figure for `NC(=O)c1ccc(-c2ccc3ncc(-c4cccc(CO)c4)n3n2)cc1` [Compound 296, 4-[3-[3-(hydroxymethyl)phenyl]imidazo [1,2-b]pyridazin-6-yl]benzamide] is 1890 nM; for `Cc1cccc(Cc2ccc3ncc(-c4ccncc4)n3n2)c1` [Compound 414, 6-(m-tolylmethyl)-3-(4-pyridyl)imidazo [1,2-b]pyridazine] it is 977 nM; for `COc1cc(-c2cc(-c3cccc(F)c3)cnc2N)ccc1O` [382_0314_0313, 4-[2-amino-5-(3-fluorophenyl)-3-pyridyl]-2-methoxy-phenol] it is 2030 nM.

As to `O=C(NCCO)c1cccc(-c2ccc3ncc(-c4ccc(CO)cc4)n3n2)c1` [Compound 475, N-(2-hydroxyethyl)-3-[3-[4-(hydroxymethyl)phenyl]imidazo [1,2-b]pyridazin-6-yl]benzamide], the 50% inhibitory concentration (IC50) was 2140 nM.

Take `COc1ccc(-c2ccc3ncc(-c4ccncc4)n3n2)cc1OC` [Compound 400, 6-(3,4-dimethoxy-phenyl)-3-(4-pyridyl)imidazo [1,2-b]pyridazine]: the IC50 came out at 282 nM. The same measure, in the same setting: under `CC(=O)c1cccc(-c2cnc3ccc(Cc4ccccc4)nn23)c1` [Compound 485, 1-[3-(6-benzylimidazo [1,2-b]pyridazin-3-yl)phenyl] ethanone] stands 3970 nM; under `OCc1ccc(-c2cnc3ccc(-c4cccc(F)c4)nn23)cc1` [Compound 374, [4-[6-(3-fluorophenyl)imidazo[1,2-b]pyridazin-3-yl]phenyl] methanol], 2960 nM. On the same count and under the same terms, the figure for `OCc1cccc(-c2cnc3ccc(-c4ccoc4)nn23)c1` [Compound 336, [3-[6-(3-furyl)imidazo [1,2-b]pyridazin-3-yl]phenyl] methanol] is 3990 nM; for `c1coc(-c2ccnc3[nH]nc(C4CC4)c23)c1` [Compound 530, 3-cyclopropyl-4-(2-furyl)-1H-pyrazolo[3,4-b]pyridine] it is 12600 nM; for `CC(C)CNc1nn2c(-c3cccc(NS(C)(=O)=O)c3)cnc2s1` [Compound 263, N-[3-[2-(isobutylamino)imidazo[2,1-b] [1,3,4]thiadiazol-5-yl]phenyl] methane-sulfonamide] it is 7070 nM.

Staying with this test, now noted: secondary screen, re-synthesized and expanded compounds.
For the molecule `OCCCNc1ccc2ncc(-c3ccncc3)n2n1` [BF000722253, 3-[[3-(4-pyridyl)-imidazo[1,2-b]pyridazin-6-yl]amino]-propan-1-ol], the IC50 turned out to be 538 nM. Still for that read-out and setting: under `COc1ccc(-c2cnc3ccc(NCc4ccc5c(c4)OCO5)nn23)cc1OC` [BF000146114, N-(1,3-benzodioxol-5-ylmethyl)-3-[3,4-dimethoxy-phenyl)-imidazo[1,2-b]pyridazin-6-amine] stands 6220 nM; under `c1ccc(CNc2ccc3ncc(-c4ccncc4)n3n2)nc1` [BF000817170, 3-(4-pyridyl)-N-(2-pyridyl-methyl)-imidazo[1,2-b]pyridazin-6-amine], 170 nM; under `OCCCNc1ccc2ncc(-c3ccc4c(c3)OCO4)n2n1` [BF000146218, 3-[[3-(1,3-benzodioxol-5-yl)-imidazo[1,2-b]pyridazin-6-yl]amino]-propan-1-ol], 708 nM. The same measure, in the same setting: under `COc1cc(-c2cc(-c3ccc(N4CCN(C)CC4)cc3)cnc2N)ccc1O` [BF000313028, 4-[2-amino-5-[4-(4-methylpiperazin-1-yl)phenyl]-3-pyridyl]-2-methoxy-phenol] stands 121 nM. Still for that read-out and setting: under `COc1cc(-c2cc(-c3ccc(OCCCN(C)C)nc3)cnc2N)cc(OC)c1OC` [BF000312521, 5-[6-(3-(dimethyl-amino)-propoxy]-3-pyridyl]-3-(3,4,5-trimethoxy-phenyl)-pyridin-2-amine] stands 709 nM; under `COc1cc(-c2cnc3ccc(-c4ccc(OC)c(OC)c4)nn23)ccc1O` [BF000726453, 4-[6-(3,4-dimethoxy-phenyl)-imidazo[l,2-b]pyridazin-3-yl]-2-methoxy-phenol], 39.4 nM.
